# According to patent US8987338B2, “Active ingredient of a medicinal agent, a medicinal agent, a pharmaceutical composition and method for treating dementia syndrome patients” (priority 2007, dated 2015):
# Assays:
# [1] = tested on: patients with vascular dementia of the Alzheimer's type; assay: Clinical trial: electroencephalography (EEG) before and after therapy; type: in vivo, human; conditions: before vs after treatment (about 3 months), individual patients or group
# Description: MMSE scale (parameter of evaluation of intellectually-mnestic functions of a patient before and after treatment) was used for the evaluation of intellect. […] Electroencephalography (EEG) was performed in 12 patients (48%) before and after the Ropren therapy.
# [2] = tested on: patients with Parkinson's syndrome; assay: Clinical trial: unified scale for evaluation of Parkinsonism; type: in vivo, human; conditions: 3 months of treatment
# Description: The efficacy of the treatment of Alzheimer-type dementias with marked intellectual-mnestic memory loss with polyprenols of formula (1) and a comparison of the efficacy of Ropren and Gliatilin was studied in patients during a 3-month course of treatment. Treatment efficacy on various functions before and after the treatment was assessed using the international scale MMSE ((evaluation of mental status—Mini-Mental State Examination, MMSE) Folstcin et al, 1975), “list with symptoms” questionnaire, unified scale for evaluation of Parkinsonism, EEG data, and biochemical parameters of the blood.
# After treatment with Ropren, the Parkinson's syndrome decreased (on average by 5 points) in almost all patients, i.e., in 23 out of 25 patients or in 92%. This positive effect was found as early as 1 month after commencement of Ropren therapy. In the case of Gliatilin, improvement of Parkinson's syndrome was less pronounced (on average by 3 points) using the Parkinsonism rating scale.
smiles,measurement,setting,value
"C[N+](C)(C)CCOP(=O)([O-])OC[C@H](O)CO [Gliatilin, choline alfoscerate]",Changes in EEG,[1],No changes
same,average decrease of Parkinson's syndrome on Parkinsonism rating scale,[2],3 points
